ChEMBL document CHEMBL4184197 (Bioorg Med Chem, 2018)

Experiments:
[1] = Oral bioavailability in Sprague-Dawley rat at 10 mg/kg by LC-MS/MS analysis; type: ADME, organism-based; conditions: in vivo
[2] = target: T1, Retinoic acid receptor beta (Mus musculus) (UniProt P22605); test: Transactivation of mouse Gal4-fused RARbeta-LBD expressed in COS-7 cells after 1 day by bright-Glo reagent based assay relative to control ATRA; type: cell-based
T1 sequence (whole entry): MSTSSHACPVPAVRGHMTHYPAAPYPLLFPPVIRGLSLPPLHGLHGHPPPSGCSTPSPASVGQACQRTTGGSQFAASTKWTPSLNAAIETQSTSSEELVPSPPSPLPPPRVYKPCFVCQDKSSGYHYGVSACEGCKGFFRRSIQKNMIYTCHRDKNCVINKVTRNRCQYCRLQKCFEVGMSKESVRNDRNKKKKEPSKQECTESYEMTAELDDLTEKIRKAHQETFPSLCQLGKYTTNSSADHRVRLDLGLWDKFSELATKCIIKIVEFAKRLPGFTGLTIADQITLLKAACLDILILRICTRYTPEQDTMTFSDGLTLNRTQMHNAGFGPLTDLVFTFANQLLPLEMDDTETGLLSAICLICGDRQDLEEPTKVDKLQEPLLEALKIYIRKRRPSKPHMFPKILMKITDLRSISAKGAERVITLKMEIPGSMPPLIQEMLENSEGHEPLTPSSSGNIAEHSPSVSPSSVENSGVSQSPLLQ

[3] = target: T2, Retinoic acid receptor alpha (Mus musculus) (UniProt P11416); test: Transactivation of mouse Gal4-fused RARalpha-LBD expressed in COS-7 cells after 1 day by bright-Glo reagent based assay relative to control ATRA; type: cell-based
T2 sequence (whole entry): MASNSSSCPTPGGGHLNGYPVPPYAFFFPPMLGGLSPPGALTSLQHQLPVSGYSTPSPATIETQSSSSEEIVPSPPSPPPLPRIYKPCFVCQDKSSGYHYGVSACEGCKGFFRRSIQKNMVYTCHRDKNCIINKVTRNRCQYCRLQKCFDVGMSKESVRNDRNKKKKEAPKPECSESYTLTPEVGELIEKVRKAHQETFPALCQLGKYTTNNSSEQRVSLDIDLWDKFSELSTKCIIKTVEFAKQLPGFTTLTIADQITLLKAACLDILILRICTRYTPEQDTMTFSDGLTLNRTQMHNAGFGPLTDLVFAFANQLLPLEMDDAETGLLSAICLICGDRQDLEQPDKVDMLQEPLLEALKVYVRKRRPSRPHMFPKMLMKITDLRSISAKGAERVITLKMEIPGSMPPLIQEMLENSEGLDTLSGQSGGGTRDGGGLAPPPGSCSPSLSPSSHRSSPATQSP

[4] = target: T3, Retinoic acid receptor gamma (Mus musculus) (UniProt P18911); test: Transactivation of mouse Gal4-fused RARgamma-LBD expressed in COS-7 cells after 1 day by bright-Glo reagent based assay relative to control ATRA; type: cell-based
T3 sequence (whole entry): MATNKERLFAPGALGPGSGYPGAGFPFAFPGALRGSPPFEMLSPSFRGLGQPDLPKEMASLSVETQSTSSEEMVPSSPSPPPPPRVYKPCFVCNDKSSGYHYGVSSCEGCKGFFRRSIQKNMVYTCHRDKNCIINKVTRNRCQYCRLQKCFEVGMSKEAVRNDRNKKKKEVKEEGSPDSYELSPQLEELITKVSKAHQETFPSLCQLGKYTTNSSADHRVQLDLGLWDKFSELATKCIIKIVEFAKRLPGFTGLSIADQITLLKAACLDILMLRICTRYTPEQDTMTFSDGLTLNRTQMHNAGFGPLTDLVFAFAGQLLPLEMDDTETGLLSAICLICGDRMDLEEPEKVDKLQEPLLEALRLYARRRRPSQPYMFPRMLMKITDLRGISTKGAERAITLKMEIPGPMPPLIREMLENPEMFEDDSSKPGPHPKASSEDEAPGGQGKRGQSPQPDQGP

Rattus norvegicus = test: AUC in Sprague-Dawley rat at 10 mg/kg, po by LC-MS/MS analysis; type: ADME, organism-based; conditions: in vivo

| SMILES | bioavailability [1] | Ratio EC50 [2] | Ratio EC50 [3] | Ratio EC50 [4] | AUC (Rattus norvegicus) |
| --- | --- | --- | --- | --- | --- |
| CCOc1c(Cl)cc(C(=O)Nc2ccc(C(=O)O)cc2)cc1Cl | > 35% |  |  |  |  |
| CCOc1cc(C(=O)Nc2ccc(C(=O)O)cc2)cc(OC(C)C)c1OCC |  | 2450 | 29 | 960 |  |
| CCCCOc1c(Cl)cc(C(=O)Nc2ccc(C(=O)O)cc2)cc1Cl |  | 717 | 84 | 1480 |  |
| CCOc1c(Cl)cc(C(=O)Nc2ccc(C(=O)O)c(F)c2)cc1OC(C)C |  |  | 1.1 |  |  |
| CCOc1c(Cl)cc(C(=O)Nc2ccc(C(=O)O)c(C)c2)cc1OC |  |  | 33 |  |  |
| CCOc1c(Cl)cc(C(=O)Nc2ccc(C(=O)O)c(C(F)(F)F)c2)cc1Cl |  |  | 1.7 |  |  |
| CC(C)Oc1cc(C(=O)Nc2ccc(C(=O)O)c(F)c2)cc(Cl)c1OC(C)C |  |  | 2.7 |  |  |
| CCOc1c(OC(C)C)cc(C(=O)Nc2ccc(C(=O)O)cc2)cc1OC(C)C |  |  |  |  | 783782 ng·min/mL |
| CCOc1c(Cl)cc(C(=O)Nc2ccc(C(=O)O)c(Cl)c2)cc1Cl |  |  | 151 |  |  |
| CCOc1c(OC2CCCC2)cc(C(=O)Nc2ccc(C(=O)O)cc2)cc1OC1CCCC1 |  | 4200 | 29 | 550 |  |
| O=C(O)c1ccc(NC(=O)c2cc(Cl)c(OC3CCCC3)c(OC3CCCC3)c2)cc1 |  | 55 | 1.7 | 571 |  |
| COc1c(Cl)cc(C(=O)Nc2ccc(C(=O)O)c(F)c2)cc1OC(C)C |  |  | 6.7 |  |  |
| CCOc1c(Cl)cc(C(=O)Nc2ccc(C(=O)O)c(C)c2)cc1OCC1CC1 |  |  | 2.6 |  |  |
| CC(C)(C)Oc1cc(C(=O)Nc2ccc(C(=O)O)cc2)cc(Cl)c1OC(C)(C)C |  | 38 | 0.9 | 162 |  |
| CCOc1cc(C(=O)Nc2ccc(C(=O)O)c(C)c2)cc(Cl)c1OC(C)C |  |  | 7 |  |  |
| CC(C)Oc1c(Cl)cc(C(=O)Nc2ccc(C(=O)O)cc2)cc1Cl |  | 1420 | 7 | 823 |  |
| COc1c(Cl)cc(C(=O)Nc2ccc(C(=O)O)c(C)c2)cc1OC(C)C |  |  | 4.7 |  |  |

| SMILES | bioavailability [1] | Ratio EC50 [2] | Ratio EC50 [3] | Ratio EC50 [4] | AUC (Rattus norvegicus) |
| --- | --- | --- | --- | --- | --- |
| CCOc1c(Br)cc(C(=O)Nc2ccc(C(=O)O)cc2)cc1Br |  |  | 5 |  |  |
| CCOc1c(Cl)cc(NC(=O)c2ccc(C(=O)O)cc2)cc1Cl |  | 355 | 30 | > 108000 |  |
| CCOc1c(C(C)(C)C)cc(C(=O)Nc2ccc(C(=O)O)cc2)cc1C(C)(C)C |  |  | 0.2 |  |  |
| COc1c(Cl)cc(C(=O)Nc2ccc(C(=O)O)cc2)cc1Cl |  | 9520 | 30 | 5850 |  |
| Cc1cc(NC(=O)c2cc(Cl)c(OC(C)(C)C)c(OC(C)(C)C)c2)ccc1C(=O)O |  |  | 0.64 |  |  |
| CC1(C)CCC(C)(C)c2c1cc(C(=O)Nc1cc(F)c(C(=O)O)c(F)c1)c(O)c2Cl [NRX195183] |  | 1560 | 11 | 9840 |  |
| CCOc1c(Cl)cc(C(=O)Nc2ccc(C(=O)O)cc2)cc1OC1CCC1 |  |  | 1 |  |  |
| O=C(O)c1ccc(NC(=O)c2cc(Cl)c(O)c(Cl)c2)cc1 |  | 642 | 92 | 5000 |  |
| CCCOc1c(Cl)cc(C(=O)Nc2ccc(C(=O)O)cc2)cc1Cl |  | 139 | 15 | 1200 |  |
| CCOc1cc(C(=O)Nc2ccc(C(=O)O)cc2)cc(OCC)c1OCC |  | 64100 | 368 to 370 | 5880 |  |
| O=C(O)c1ccc(NC(=O)c2cc(Cl)c(OC3CCC3)c(OC3CCC3)c2)cc1 |  | 53 | 2.4 | 1060 |  |
| Cc1cc(NC(=O)c2cc(Cl)c(OC(C)C)c(OC(C)C)c2)ccc1C(=O)O |  |  | 0.97 |  |  |
| CCOc1cc(C(=O)Nc2ccc(C(=O)O)cc2)cc(Cl)c1OC(C)C |  | 7.1 | 2.1 | 1200 |  |
| CCOc1c(Cl)cc(C(=O)Nc2ccc(C(=O)O)c(F)c2)cc1Cl |  |  | 25 |  |  |
| CC(C)Oc1cc(C(=O)Nc2ccc(C(=O)O)cc2)cc(OC(C)C)c1OC(C)C |  | 2600 | 27 | 225 |  |
| CCOc1c(Cl)cc(C(=O)Nc2ccc(C(=O)O)c(O)c2)cc1Cl |  |  | 33 |  |  |
